Structures are written as SMILES. Results filed as inconclusive are left out.

The subject of this assay is S. cerevisiae PHO84-LacZ reporter, HDAC inhibition. The assay can be described thus: HDAC inhibitors via yeast reporter, S. cerevisiae, PHO84-LacZ (AID 1582).

On to `CC(C(=O)O)c1ccc(N2Cc3ccccc3C2=O)cc1` (configuration not stated), for which the EC50 is 50 µM.

As for `NCCCCN`, the EC50 was 125 µM.

Turning to `COc1cc(C)c2c(=O)cc(-c3ccccc3)oc2c1`, the EC50 was 60 µM.

Regarding `CCC(C)[C@H]1O[C@]2(C=C[C@@H]1C)C[C@@H]1C[C@@H](C/C=C(\C)[C@@H](OC3C[C@H](OC)C(O[C@H]4C[C@H](OC)[C@@H](O)[C@H](C)O4)[C@H](C)O3)[C@@H](C)/C=C/C=C3\CO[C@@H]4[C@H](O)C(C)=C[C@@H](C(=O)O1)[C@]34O)O2` (some centres not stated), the EC50 is 66 µM.

As to `CN(Cc1cnc2nc(N)nc(N)c2n1)c1ccc(C(=O)N[C@@H](CCC(=O)O)C(=O)O)cc1`, the EC50 was 78 µM.

Consider `c1ccc2[nH]c(-c3cscn3)nc2c1`, for which the concentration giving a half-maximal response (EC50) is 148 µM.

As for `N#Cc1ccc2c(c1)N(CCCN1CCC(O)CC1)c1ccccc1S2`, the EC50 is 148 µM.

(Values after PubChem BioAssay AID1582.)
